# Several values for one entry are separate records, joined by “and”; a condition that tells them apart may be missing. Equal entries are not always repeated. Activity calls are given as the source filed them.
# Tests used:
# cells = format: functional
# [1] = target: T1, Short transient receptor potential channel 4 (Mus musculus, UniProt Q9QUQ5); assay: block of DAMGO-driven TRPC4 calcium entry – cell-based, HEK293 TRPC4/mu-opioid, Fluo-4 calcium, dose response (AID 434942); format: functional;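 further: potency of inhibitors blocking the TRPC4 calcium response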
# T1 sequence (Q9QUQ5 whole entry): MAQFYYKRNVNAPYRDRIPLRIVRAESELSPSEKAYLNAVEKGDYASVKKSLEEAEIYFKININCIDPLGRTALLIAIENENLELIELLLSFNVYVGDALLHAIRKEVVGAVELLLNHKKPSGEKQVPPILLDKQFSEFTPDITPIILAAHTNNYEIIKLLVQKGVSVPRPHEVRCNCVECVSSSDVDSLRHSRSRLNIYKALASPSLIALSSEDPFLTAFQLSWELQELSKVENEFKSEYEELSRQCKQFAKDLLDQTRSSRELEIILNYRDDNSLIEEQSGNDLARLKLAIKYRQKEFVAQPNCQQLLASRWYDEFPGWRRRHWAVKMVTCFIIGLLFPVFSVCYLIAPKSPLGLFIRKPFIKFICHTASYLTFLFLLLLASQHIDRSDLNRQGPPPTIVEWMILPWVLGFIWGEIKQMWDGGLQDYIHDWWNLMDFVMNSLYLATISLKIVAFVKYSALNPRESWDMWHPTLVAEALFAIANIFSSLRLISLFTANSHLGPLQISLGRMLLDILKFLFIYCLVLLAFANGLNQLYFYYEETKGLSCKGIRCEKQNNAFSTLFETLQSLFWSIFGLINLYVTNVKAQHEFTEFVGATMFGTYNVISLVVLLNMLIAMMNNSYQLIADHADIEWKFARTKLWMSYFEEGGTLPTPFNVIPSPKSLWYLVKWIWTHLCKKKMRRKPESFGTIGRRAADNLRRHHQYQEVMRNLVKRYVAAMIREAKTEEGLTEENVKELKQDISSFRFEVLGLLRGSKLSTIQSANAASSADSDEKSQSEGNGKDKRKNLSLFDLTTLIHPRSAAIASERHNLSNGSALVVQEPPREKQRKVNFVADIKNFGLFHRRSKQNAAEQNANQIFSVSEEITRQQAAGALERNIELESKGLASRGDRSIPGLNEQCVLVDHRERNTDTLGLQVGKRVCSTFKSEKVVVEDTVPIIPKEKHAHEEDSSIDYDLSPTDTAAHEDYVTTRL
# [2] = target: FAD-linked sulfhydryl oxidase ALR (Homo sapiens, UniProt P55789); assay: ALR-catalysed DTT oxidation blockers – biochemical, H2O2 detection, luminescence, cherry-pick, dose response (AID 493248)
# [3] = target: T2, Ubiquitin-conjugating enzyme E2 N (Homo sapiens, UniProt P61088); format: functional;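 further: Dose-response confirmation in a TR-FRET assay detecting UBC13-driven polyubiquitin chain formation, inhibition measured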
# T2 sequence (P61088 whole entry): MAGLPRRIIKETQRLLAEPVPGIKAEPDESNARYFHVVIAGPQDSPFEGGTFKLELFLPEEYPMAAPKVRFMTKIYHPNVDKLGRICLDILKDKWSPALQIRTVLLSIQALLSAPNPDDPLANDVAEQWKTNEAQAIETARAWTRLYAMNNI
# [4] = viability loss in HEK293 cells – cell-based, plate reader, cherry-picked samples, cytotoxicity control, dose response (AID 743446); format: functional
# [5] = blockade of melanocortin 4 receptor signaling – cell-based, plate reader, cherry pick, counter-screen for LGR2 antagonist project, dose response (AID 743444); format: functional;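 further: transfected HEK 293 cells stimulated with alpha-MSH peptide; potency of inhibitors of the alpha-MSH evoked signal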
# [6] = blockers of bursicon-stimulated LGR2 cAMP reporter – cell-based, HEK293, CRE-luciferase reporter, cherry pick, set 2, dose response (AID 743343); format: functional;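 further: transfected cells were stimulated with diluted bursicon conditioned medium after compound addition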
# [7] = toxicity toward HepG2 liver cells – cell-based, plate reader, cherry-pick, antagonist series, cytotoxicity control, dose response (AID 743416); format: functional
# [8] = A549 cell cytotoxicity, dose response, cytotoxicity control, plate reader, cherry-pick, antagonist series (AID 743412); format: functional, cell-based
# [9] = target: Glyceraldehyde-3-phosphate dehydrogenase (Homo sapiens, UniProt P04406)
# [10] = blockers of HIV-1 ZM109 envelope-driven cell-cell fusion – HeLa effector, CEM target cells, luciferase, cherry-pick, dose response (AID 652058); format: functional, cell-based;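 further: luciferase signal from HIV-1 Env mediated cell-cell fusion of effector and target cells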
# Cytochrome P450 3A4 = Cytochrome P450 3A4 (Homo sapiens, UniProt P08684); conditions: Potency;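 further: confirmatory qHTS run detecting inhibitors and substrates of CYP3A4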
# [11] = microbe, parasite or virus in culture; format: functional; conditions: Mycobacterium tuberculosis
# [12] = P. falciparum Dd2 growth inhibitors, dose response, SYBR Green, cherry-picked samples (AID 1159567); format: functional, cell-based
# Large T antigen = Large T antigen (Simian virus 40, UniProt P03070); format: functional, Betapolyomavirus macacae;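 further: Confirmatory-stage PubChem screen for compounds that inhibit SV40 T antigen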
# Streptokinase A = target: T3, Streptokinase A (Streptococcus pyogenes serotype M1, UniProt P10520); assay: viability-normalized secreted streptokinase activity reduction – plasminogen activation absorbance, OD405, dose response (AID 1914); format: functional, Streptococcus pyogenes M1 GAS;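 further: secreted streptokinase activity via plasminogen activation per viability signal from cell pellet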
# T3 sequence (P10520 whole entry): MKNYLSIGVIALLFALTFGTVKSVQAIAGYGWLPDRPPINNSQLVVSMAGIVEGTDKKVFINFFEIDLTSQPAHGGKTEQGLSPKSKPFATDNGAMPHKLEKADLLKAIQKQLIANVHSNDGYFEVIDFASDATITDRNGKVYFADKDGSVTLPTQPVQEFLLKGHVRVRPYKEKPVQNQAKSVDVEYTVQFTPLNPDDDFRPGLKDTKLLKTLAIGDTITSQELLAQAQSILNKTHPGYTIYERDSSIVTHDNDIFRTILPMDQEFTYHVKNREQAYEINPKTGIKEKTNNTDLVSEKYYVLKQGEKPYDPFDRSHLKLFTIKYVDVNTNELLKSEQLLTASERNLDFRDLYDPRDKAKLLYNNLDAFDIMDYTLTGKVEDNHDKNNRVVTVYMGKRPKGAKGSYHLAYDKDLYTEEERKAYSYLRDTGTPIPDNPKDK
# [13] = viability of PTEN-deleted HCT116 cells – cell-based, HCT116 PTEN knockout, dose response (AID 1047); format: functional;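 further: HCT116 colon tumor cells with PTEN knocked out; cells exposed to compound for 60 hours before readout; potency for loss of cell viability measured by luminescence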
# [14] = Luminescence Cell-Based Dose Retest to Confirm Inhibitors of Cancer Stem Cells. [Related pubchem assays (depositor defined):AID2717, AID2721]; format: functional; conditions: Homo sapiens
# [15] = test system: Streptococcus sp. 'group A'; assay: Streptococcus pyogenes SK(-)GAS viability under kanamycin – luminescence, BacTiterGlo, confirmation, counter-screen for streptokinase expression inhibitor project, dose response (AID 1900); format: functional, organism-based
# Streptococcus = assay: GAS UMAA2166 growth inhibition – luminescence, BacTiterGlo, counter-screen for streptokinase expression inhibitor project, dose response (AID 1915); format: functional, organism-based;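 further: potency for reduction of bacterial viability or growth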
# [16] = viability of HCT116 lacking mutant beta-catenin – cell-based, human colon tumor, dose response (AID 1045); format: functional;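 further: HCT116 colon tumor cells with beta catenin knocked out; cells exposed to compound for 60 hours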
# [17] = target: T4, Heat shock factor protein 1 (Mus musculus, UniProt P38532); assay: enhancement of HSF1-driven luciferase signal – cell-based, NIH3T3, luminescence, dose retest, confirmation (AID 435004); format: functional;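 further: stress induced by proteasome inhibitor MG132 added 30 min after compound; luciferase reporter driven by HSF1 response element in NIH3T3 cells; actives raise luminescence as potentiators of the MG132 stress response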
# T4 sequence (P38532 whole entry): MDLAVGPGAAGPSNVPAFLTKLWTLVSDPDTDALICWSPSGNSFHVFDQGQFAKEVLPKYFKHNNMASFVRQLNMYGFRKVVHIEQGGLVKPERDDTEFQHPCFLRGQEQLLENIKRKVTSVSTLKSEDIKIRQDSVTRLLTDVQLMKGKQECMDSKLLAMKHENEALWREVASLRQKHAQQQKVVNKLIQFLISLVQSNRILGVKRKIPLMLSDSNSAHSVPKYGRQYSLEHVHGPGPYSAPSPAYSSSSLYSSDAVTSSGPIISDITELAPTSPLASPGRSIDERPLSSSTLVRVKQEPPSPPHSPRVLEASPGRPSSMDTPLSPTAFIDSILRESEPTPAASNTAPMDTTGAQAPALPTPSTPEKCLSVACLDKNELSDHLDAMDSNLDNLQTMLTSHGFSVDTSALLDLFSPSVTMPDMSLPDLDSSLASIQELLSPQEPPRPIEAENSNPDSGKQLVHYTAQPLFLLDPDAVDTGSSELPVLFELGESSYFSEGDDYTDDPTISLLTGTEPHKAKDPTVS
# Chain of Glyceraldehyde-3-phosphate dehydrogenase (P04406 whole entry, the tested form may be a part): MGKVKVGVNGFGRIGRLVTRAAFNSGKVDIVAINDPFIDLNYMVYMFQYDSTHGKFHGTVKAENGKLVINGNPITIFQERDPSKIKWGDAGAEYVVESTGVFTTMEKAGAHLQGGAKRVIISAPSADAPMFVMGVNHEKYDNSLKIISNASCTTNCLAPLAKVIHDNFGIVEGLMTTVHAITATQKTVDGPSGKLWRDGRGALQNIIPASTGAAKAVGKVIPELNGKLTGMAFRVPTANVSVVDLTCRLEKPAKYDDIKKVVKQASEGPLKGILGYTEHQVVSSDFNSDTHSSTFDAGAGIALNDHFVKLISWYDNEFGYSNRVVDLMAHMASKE
# Chain of FAD-linked sulfhydryl oxidase ALR (P55789 whole entry): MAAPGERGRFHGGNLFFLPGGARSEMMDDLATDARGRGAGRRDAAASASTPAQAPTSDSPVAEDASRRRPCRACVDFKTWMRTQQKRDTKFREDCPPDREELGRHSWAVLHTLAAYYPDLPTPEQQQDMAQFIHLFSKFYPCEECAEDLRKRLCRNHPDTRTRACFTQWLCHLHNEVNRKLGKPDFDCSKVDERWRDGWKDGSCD
# Chain of Large T antigen (P03070 whole entry): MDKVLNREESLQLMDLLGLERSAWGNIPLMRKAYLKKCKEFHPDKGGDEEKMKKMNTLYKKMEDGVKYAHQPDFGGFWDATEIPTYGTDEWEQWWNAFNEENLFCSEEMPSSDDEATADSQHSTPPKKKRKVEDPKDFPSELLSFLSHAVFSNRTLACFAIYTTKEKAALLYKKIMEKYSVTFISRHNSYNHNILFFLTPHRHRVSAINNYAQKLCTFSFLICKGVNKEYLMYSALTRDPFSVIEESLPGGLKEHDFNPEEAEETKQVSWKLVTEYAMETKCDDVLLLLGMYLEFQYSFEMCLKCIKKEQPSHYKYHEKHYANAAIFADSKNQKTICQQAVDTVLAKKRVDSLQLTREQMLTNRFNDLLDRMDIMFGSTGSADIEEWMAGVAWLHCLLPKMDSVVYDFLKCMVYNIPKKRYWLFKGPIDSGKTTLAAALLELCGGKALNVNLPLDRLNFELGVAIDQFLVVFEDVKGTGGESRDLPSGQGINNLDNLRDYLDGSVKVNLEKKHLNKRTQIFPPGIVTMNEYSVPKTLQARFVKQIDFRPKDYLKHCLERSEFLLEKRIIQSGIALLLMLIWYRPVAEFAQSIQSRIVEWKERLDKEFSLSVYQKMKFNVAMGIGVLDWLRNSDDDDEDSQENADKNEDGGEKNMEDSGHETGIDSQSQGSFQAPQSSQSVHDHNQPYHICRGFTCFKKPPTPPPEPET
# Chain of Cytochrome P450 3A4 (P08684 whole entry): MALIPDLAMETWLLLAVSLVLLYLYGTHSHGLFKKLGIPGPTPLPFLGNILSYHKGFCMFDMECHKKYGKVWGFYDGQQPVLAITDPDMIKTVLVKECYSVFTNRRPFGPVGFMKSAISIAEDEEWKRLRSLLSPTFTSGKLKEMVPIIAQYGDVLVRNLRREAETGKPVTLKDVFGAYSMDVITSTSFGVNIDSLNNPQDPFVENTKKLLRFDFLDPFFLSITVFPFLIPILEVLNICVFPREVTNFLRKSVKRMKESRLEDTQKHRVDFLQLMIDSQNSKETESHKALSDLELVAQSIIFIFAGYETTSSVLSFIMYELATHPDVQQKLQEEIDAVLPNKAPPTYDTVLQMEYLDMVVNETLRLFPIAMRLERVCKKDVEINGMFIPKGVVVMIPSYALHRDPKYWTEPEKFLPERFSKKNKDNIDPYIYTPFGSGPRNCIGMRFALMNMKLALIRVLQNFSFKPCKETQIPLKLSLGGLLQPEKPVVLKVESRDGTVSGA
smiles,measurement,setting,value
O=C(Nc1nnc(-c2cc(Cl)ccc2Cl)o1)C1=COCCO1,IC50,cells,11.6 µM (active)
CCOC(=O)c1cc(C#N)c(N2CCCCC2)nc1-c1ccccc1,EC50,[1],3.76 µM (active)
CNC(=O)COc1ccc2oc3c(c2c1)CCCC3,EC50,[1],1.33 µM (active)
Cc1cc(Cl)ccc1OC(C)C(=O)Nc1ccc([N+](=O)[O-])cn1 (stereo not drawn),IC50,cells,38 µM (active)
O=C(Nc1ccc(Oc2ccccc2)nc1)C1CCN(Cc2ccccc2)CC1,EC50,[1],2.37 µM (active)
Clc1ccc(-c2nc3cnccn3c2NC2CCCC2)cc1,AC50,[2],4.85 µM (active)
CCCCCCSc1cc(-c2nc3cc(C)ccn3c2NC2CCCCC2)ccc1OC,IC50,[3],> 20 µM (inactive)
O=C(Nc1nc2ccccc2s1)c1ccc2c(c1)OCO2,AC50,[4],31.5 µM (active)
same,AC50,[5],4.59 µM (active)
same,AC50,[6],3.49 µM (active)
same,AC50,[7],> 52 µM (inactive)
same,AC50,[8],> 52 µM (inactive)
CN1CCN(C2=C(Cl)C(=O)N(c3ccc(Cl)nc3)C2=O)CC1,IC50,[9],> 50 µM (inconclusive)
CC(C)NC(=O)N(C)C[C@@H]1Oc2ccc(NC(=O)C3CC3)cc2CC(=O)N([C@@H](C)CO)C[C@@H]1C,AC50,[10],64.5 µM (active)
COC(=O)CNC(=O)C1(CC(C)C)C=CCN1C(=O)c1ccccc1 (stereo not drawn),AC50,Cytochrome P450 3A4,20 µM (inconclusive)
CC1=NN(c2ccccc2)C(=O)C1C(=O)c1ccccc1 (stereo not drawn),CC50,[11],> 40 µM (active)
same,IC50,cells,42.1 µM (active)
Cc1ccc2[nH]c(O)c(/N=N/C(=N)S)c2c1,IC50,[3],> 20 µM (inactive)
CO[C@@H]1CN(C)C(=O)c2ccc(NC(=O)Nc3cccc(F)c3)cc2OC[C@H](C)NC[C@H]1C,AC50,[12],7.62 µM (active)
N#CC1=C(S)N(c2ccccc2)C(c2ccc(-c3ccc(Cl)c(Cl)c3)o2)NC1=O (stereo not drawn),IC50,Large T antigen,62.7 µM (active)
COc1ccc(-c2ccccc2[C@H]2[C@@H](CO)N(C(=O)C3CCOCC3)[C@H]2C#N)cc1,AC50,[12],> 39 µM (inactive)
"COc1cc(OC)c2c(=O)c(-c3ccccc3)c(C)oc2c1OC [2-METHYL-5,7,8-TRIMETHOXYISOFLAVONE]",AC50,Cytochrome P450 3A4,20 µM (inconclusive)
C/C(CC(=O)Nc1ccc(N(C)C)cc1)=N\NC(=O)c1cnccn1,IC50,Large T antigen,17.5 µM (active)
Cc1c(C)c2ccc(OCC(=O)Nc3nccs3)cc2oc1=O,AC50,[4],> 52 µM (inactive)
same,AC50,[5],4.38 µM (active)
same,AC50,[6],4.84 µM (active)
O=C(CSc1nc2ccccc2s1)NO,IC50,[9],> 100 µM (not active)
O=C1OC(C2=CCCCC2)=NC12CC2,AC50,Cytochrome P450 3A4,5.01 µM (inconclusive)
O=C(O)CCC(=O)Nc1ccc(O)c(C(=O)O)c1,IC50,[9],> 100 µM (not active)
NS(=O)(=O)c1ccc(CCNCc2ccccc2OCc2ccc(F)cc2)cc1,EC50,[1],3.35 µM (active)
CN(C)c1ccc(NC(=O)c2cccc(N3C(=O)CCC3=O)c2)cc1,IC50,Large T antigen,9.21 µM (active)
CC(C)(C)[S@+]([O-])N1Cc2cc(C(=O)NC3CCC3)nc(-c3cccc(Br)c3)c2[C@@H]1CCO,AC50,[12],7.47 µM (active)
COc1ccccc1N1CCN(S(=O)(=O)c2ccccc2)CC1,AC50,[2],7.31 µM (active)
Nc1ccc(C(=O)Nc2cccc(N)c2)cc1,AC50,[2],1.96 µM (active)
O=C(c1ccc2c(c1)OCO2)N1CCN=C1SCc1ccccc1,AC50,[2],> 100 µM (inactive)
COc1cccc2c1cc([N+](=O)[O-])c1c(C(=O)O)cc3c(c12)OCO3 [ARISTOLOCHIC ACID],AC50,Cytochrome P450 3A4,10 µM (inconclusive) and 63.1 nM (inconclusive)
CCC1=C2CC[C@H]3C(=O)N(CC)C(=O)[C@H]3[C@H]2[C@@]2(C)/C(=N/CC(=O)OC)OC(=O)N2C1=O,AC50,Cytochrome P450 3A4,15.8 µM (inconclusive)
Cc1cc(C)cc(NC(=O)CCc2ccc(C)o2)c1,IC50,cells,36.7 µM (active)
COc1ccc(S(=O)(=O)Nc2ccc3c(c2)C(=O)N([C@@H](C)CO)C[C@H](C)[C@@H](CN(C)C(=O)Nc2cccc4ccccc24)OCCCC[C@H](C)O3)cc1,AC50,[4],> 52 µM (inactive)
same,AC50,[5],8.72 µM (active)
same,AC50,[7],> 52 µM (inactive)
same,AC50,[8],22.8 µM (active)
C[C@@]12CCC(O)C[C@H]1CCC1C2CC[C@]2(C)C(=O)CCC12 (stereo partly drawn),AC50,Cytochrome P450 3A4,15.8 µM (inconclusive)
CC1Cc2ccccc2N1C(=O)COC(=O)c1ccc(Cl)nc1 (stereo not drawn),IC50,cells,39.8 µM (active)
COc1ccc(Nc2c3c(nc4ccccc24)CCCC3)cc1OC,AC50,[2],0.511 µM (active)
OC(CNCc1ccco1)Cn1c2ccc(Br)cc2c2cc(Br)ccc21 (stereo not drawn),EC50,Streptokinase A,> 150 µM (not active)
same,EC50,[13],9.13 µM (active)
same,AC50,[14],3 µM (active)
same,EC50,[15],4.22 µM (active)
same,EC50,Streptococcus,13.7 µM (active)
same,EC50,[16],8.59 µM (active)
same,EC50,[17],> 260 µM (inactive)
COc1ccc(OC)c(S(=O)(=O)Nc2cccnc2)c1,IC50,[9],> 100 µM (not active)

# — ChEMBL document CHEMBL1201862, “PubChem BioAssay data set” (2004)
